Measurements from ChEMBL document CHEMBL1155962, “Dihydropyrazolopyrimidines containing benzimidazoles as K(V)1.5 potassium channel antagonists” (Bioorg Med Chem Lett, 2009).
The source made the active and inactive calls. The calls are words filed in the database; no cut-off is given here.

Legend:
[1] = target: T1, Potassium voltage-gated channel subfamily A member 5 (Homo sapiens, UniProt P22460); assay: Inhibition of human Kv1.5 channel expressed in mouse L929 cells; format: cell-based
[2] = target: T1, Potassium voltage-gated channel subfamily A member 5; assay: Inhibition of human Kv1.5 channel expressed in mouse L929 cells at >1 uM; format: cell-based
hERG (KCNH2) = hERG (KCNH2) (Homo sapiens, UniProt Q12809); assay: Inhibition of human ERG at 10 uM
Chain of hERG (KCNH2) (Q12809 whole entry): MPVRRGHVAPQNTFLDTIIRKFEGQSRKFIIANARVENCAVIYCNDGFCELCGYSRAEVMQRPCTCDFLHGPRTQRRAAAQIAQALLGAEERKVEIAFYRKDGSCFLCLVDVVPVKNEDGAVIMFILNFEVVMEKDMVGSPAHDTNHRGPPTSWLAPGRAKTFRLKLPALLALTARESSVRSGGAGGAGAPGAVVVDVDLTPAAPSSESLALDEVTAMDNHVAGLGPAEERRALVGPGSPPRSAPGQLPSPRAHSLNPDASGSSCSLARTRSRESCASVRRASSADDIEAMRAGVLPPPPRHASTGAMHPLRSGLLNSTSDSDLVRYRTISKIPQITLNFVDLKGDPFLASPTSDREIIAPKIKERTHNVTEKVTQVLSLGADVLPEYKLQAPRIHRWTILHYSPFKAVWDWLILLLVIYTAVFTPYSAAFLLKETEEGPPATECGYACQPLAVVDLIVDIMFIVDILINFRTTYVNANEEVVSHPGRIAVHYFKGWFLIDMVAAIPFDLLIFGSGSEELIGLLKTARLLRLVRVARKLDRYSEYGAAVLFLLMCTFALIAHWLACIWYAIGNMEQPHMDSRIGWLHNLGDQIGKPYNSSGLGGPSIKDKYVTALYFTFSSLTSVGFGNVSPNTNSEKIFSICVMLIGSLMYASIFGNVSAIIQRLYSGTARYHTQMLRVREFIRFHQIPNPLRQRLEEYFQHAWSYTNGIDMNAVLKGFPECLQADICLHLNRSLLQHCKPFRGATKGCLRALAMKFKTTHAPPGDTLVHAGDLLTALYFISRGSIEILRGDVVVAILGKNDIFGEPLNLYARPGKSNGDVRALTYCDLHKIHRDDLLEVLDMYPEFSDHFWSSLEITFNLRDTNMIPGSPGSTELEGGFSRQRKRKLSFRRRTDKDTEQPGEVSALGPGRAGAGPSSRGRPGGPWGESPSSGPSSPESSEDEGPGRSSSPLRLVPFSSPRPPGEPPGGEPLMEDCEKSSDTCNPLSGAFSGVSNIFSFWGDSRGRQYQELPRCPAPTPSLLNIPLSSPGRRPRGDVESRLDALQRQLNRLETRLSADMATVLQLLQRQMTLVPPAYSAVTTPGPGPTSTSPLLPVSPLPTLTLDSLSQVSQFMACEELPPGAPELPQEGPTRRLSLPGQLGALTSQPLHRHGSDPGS

[3] = Inhibition of sodium channel at 10 uM
[4] = Oral bioavailability in rat at 20 umol/kg; format: ADME, organism-based; conditions: in vivo
[5] = Terminal half life in rat at 10 umol/kg, intra-arterial for 10 mins; format: ADME, organism-based; conditions: in vivo, read-out: beta t1/2 (converted)
[6] = Plasma clearance in rat at 10 umol/kg, intra-arterial for 10 mins; format: ADME, organism-based
[7] = Volume of distribution at steady state in rat at 10 umol/kg, intra-arterial for 10 mins; format: ADME, organism-based; conditions: in vivo, read-out: Vdss
Homo sapiens = organism: Homo sapiens; assay: Selectivity for human Kv1.5 channel over human ERG
[8] = Selectivity for human Kv1.5 channel over sodium channel
[9] = Selectivity for human Kv1.5 channel over calcium channel
[10] = Inhibition of calcium channel at 10 uM
Oryctolagus cuniculus [11] = assay: Prolongation of effective refractory period in rabbit atrium at 3 mg/kg; format: functional, Cardiac atrium
Oryctolagus cuniculus [12] = assay: Prolongation of effective refractory period in rabbit ventricle at 0.3 to 10 mg/kg; format: functional, organism-based

T1 sequence (P22460 whole entry): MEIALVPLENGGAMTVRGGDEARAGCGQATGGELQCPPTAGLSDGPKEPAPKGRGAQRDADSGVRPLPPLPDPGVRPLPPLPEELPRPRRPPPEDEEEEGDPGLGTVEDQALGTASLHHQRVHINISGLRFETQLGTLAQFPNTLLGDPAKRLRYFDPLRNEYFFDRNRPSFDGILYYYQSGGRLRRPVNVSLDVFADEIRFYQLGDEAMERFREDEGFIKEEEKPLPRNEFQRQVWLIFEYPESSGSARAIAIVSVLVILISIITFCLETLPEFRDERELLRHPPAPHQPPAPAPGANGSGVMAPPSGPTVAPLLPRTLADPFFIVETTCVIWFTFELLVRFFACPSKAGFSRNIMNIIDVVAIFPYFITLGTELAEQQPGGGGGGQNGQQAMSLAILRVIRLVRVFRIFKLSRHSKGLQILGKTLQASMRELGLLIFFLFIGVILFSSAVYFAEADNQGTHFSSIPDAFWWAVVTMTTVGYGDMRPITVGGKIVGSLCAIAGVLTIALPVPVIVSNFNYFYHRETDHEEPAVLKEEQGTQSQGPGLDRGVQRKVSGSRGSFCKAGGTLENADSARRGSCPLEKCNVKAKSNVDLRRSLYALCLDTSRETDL

CC1=C(c2nc3cc(S(C)(=O)=O)ccc3n2C)C(c2ccc(Cl)c(Cl)c2)n2nccc2N1 (stereo not drawn)
IC50 [1]: > 1000 nM | inhibition [2]: 29%

CC1=C(c2nc3cc(C#N)ccc3n2C)C(c2ccc(Cl)c(Cl)c2)n2nccc2N1 (stereo not drawn)
IC50 [1]: 220 nM

CC1=C(c2nc3cccc(C)c3n2C)C(c2ccc(Cl)c(Cl)c2)n2nccc2N1 (stereo not drawn)
IC50 [1]: 110 nM

CC1=C(c2ncc(-c3ccccc3)o2)C(c2ccc(Cl)c(Cl)c2)n2nccc2N1 (stereo not drawn)
IC50 [1]: > 1000 nM | inhibition [2]: 25%

CC1=C(c2nc3c(F)cccc3n2C)C(c2ccc(Cl)c(Cl)c2)n2nccc2N1 (stereo not drawn)
IC50 [1]: 64 nM

CC1=C(c2nc3ccccc3n2C)C(c2ccc(Cl)c(Cl)c2)n2nccc2N1 (stereo not drawn)
IC50 [1]: 75 nM

COC(=O)c1ccc2c(c1)nc(C1=C(C)Nc3ccnn3C1c1ccc(Cl)c(Cl)c1)n2C (stereo not drawn)
IC50 [1]: 200 nM

CC1=C(c2nc3cccc(F)c3n2C)C(c2ccc(Cl)c(Cl)c2)n2nccc2N1 (stereo not drawn)
IC50 [1]: 150 nM

CC1=C(c2nc3cc(Cl)ccc3n2C(C)C)C(c2ccc(Cl)c(Cl)c2)n2nccc2N1 (stereo not drawn)
IC50 [1]: 94 nM

CC1=C(c2nc3cc(F)ccc3n2C)C(c2ccc(Cl)c(Cl)c2)n2nccc2N1 (stereo not drawn)
IC50 [1]: 15 nM | inhibition at 10 µM (hERG (KCNH2)): 83% | inhibition [3]: 37% | bioavailability [4]: 51% | half-life [5]: 34.2 min | clearance [6]: 35 mL/min/kg | Vd [7]: 1.6 L/kg | Selectivity ratio (Homo sapiens): > 200 | Selectivity ratio [8]: > 200 | Selectivity ratio [9]: > 200

CCCCc1nnc(C2=C(C)Nc3ccnn3C2c2ccc(Cl)c(Cl)c2)o1 (stereo not drawn)
IC50 [1]: > 1000 nM | inhibition [2]: 29%

CC1=C(c2nc3ccc(Cl)cc3n2C)C(c2ccc(Cl)c(Cl)c2)n2nccc2N1 (stereo not drawn)
IC50 [1]: 660 nM

CC1=C(c2nc3ccccc3s2)C(c2ccc(Cl)c(Cl)c2)n2nccc2N1 (stereo not drawn)
IC50 [1]: 740 nM

CC(=O)Nc1ccc2c(c1)nc(C1=C(C)Nc3ccnn3C1c1ccc(Cl)c(Cl)c1)n2C (stereo not drawn)
IC50 [1]: > 1000 nM | inhibition [2]: 8%

CC1=C(c2nc3cccc(Cl)c3n2C)C(c2ccc(Cl)c(Cl)c2)n2nccc2N1 (stereo not drawn)
IC50 [1]: 71 nM

CC1=C(c2nc3cc(S(=O)(=O)Nc4ccccc4)ccc3n2C)C(c2ccc(Cl)c(Cl)c2)n2nccc2N1 (stereo not drawn)
IC50 [1]: > 1000 nM | inhibition [2]: 30%

CC1=C(c2nc3cccc(C)c3[nH]2)C(c2ccc(Cl)c(Cl)c2)n2nccc2N1 (stereo not drawn)
IC50 [1]: 150 nM

COCC1=C(c2nc3cc(F)ccc3n2C)C(c2ccc(Cl)c(Cl)c2)n2nccc2N1 (stereo not drawn)
IC50 [1]: 30 nM | inhibition at 10 µM (hERG (KCNH2)): 47% | inhibition [3]: 27% | inhibition [10]: 13% | bioavailability [4]: 37% | half-life [5]: 90 min | clearance [6]: 42 mL/min/kg | Vd [7]: 2.1 L/kg | Selectivity ratio (Homo sapiens): > 200 | Selectivity ratio [8]: > 200 | Selectivity ratio [9]: > 200 | Activity (Oryctolagus cuniculus [11]): >20% | Activity (Oryctolagus cuniculus [12]): inactive

CC1=C(c2nc3ccccc3[nH]2)C(c2ccc(Cl)c(Cl)c2)n2nccc2N1 (stereo not drawn)
IC50 [1]: 510 nM

CCCn1c(C2=C(C)Nc3ccnn3C2c2ccc(Cl)c(Cl)c2)nc2cc(F)ccc21 (stereo not drawn)
IC50 [1]: 48 nM

CC1=C(c2nc3cc(C(F)(F)F)ccc3n2C)C(c2ccc(Cl)c(Cl)c2)n2nccc2N1 (stereo not drawn)
IC50 [1]: 540 nM

CC1=C(c2nc3ccc(C)cc3n2C)C(c2ccc(Cl)c(Cl)c2)n2nccc2N1 (stereo not drawn)
IC50 [1]: 980 nM

CC1=C(c2nc3cc(Cl)ccc3n2C)C(c2ccc(Cl)c(Cl)c2)n2nccc2N1 (stereo not drawn)
IC50 [1]: 68 nM

CC1=C(c2nnc(-c3ccccc3)o2)C(c2ccc(Cl)c(Cl)c2)n2nccc2N1 (stereo not drawn)
IC50 [1]: > 1000 nM | inhibition [2]: 18%

CCn1c(C2=C(C)Nc3ccnn3C2c2ccc(Cl)c(Cl)c2)nc2cc(Cl)ccc21 (stereo not drawn)
IC50 [1]: 57 nM

CC1=C(c2nc3cc(C)ccc3n2C)C(c2ccc(Cl)c(Cl)c2)n2nccc2N1 (stereo not drawn)
IC50 [1]: 200 nM
